Source: patent US9381193B2, “Contraceptive methods and compositions” (WASHINGTON UNIVERSITY, priority 2011, dated 2016)

System: ESC-T cells
Assay: In vitro decidualization of immortalized human ESC-T cells (decidualization marker mRNA, morphology)
Type: cell-based
Parameters: Lowering of PRL and IGFBP1 mRNA expression vs differentiation media only / Morphological change during decidualization: dose or concentration left out as unconfirmed
Text: Decidualization in human cells was monitored by measuring the mRNA expression of two decidualization markers, PRL and IGFBP1.
This NADP+ analog inhibits two enzymes in the PPP, G6PD and 6GPDH, which utilize NADP+ and convert it into NADPH.
Two major results of the PPP are the production of ribose 5-phosphate and regeneration of NADPH. Production of ribose 5-phosphate is a central component in the de novo synthesis of ribonucleosides (RNs) and deoxyribonucleosides (DRNs). […] To address this question, ESC-T cultures were used and the differentiation media was supplemented with RNs and DRNs during treatment with PPP inhibitors.
Endometrial tissue was obtained from human uteri after hysterectomy conducted for benign disease or from endometrial biopsies. Informed consent was obtained from each patient before surgery and protocols were approved by the Human Research Protection Office of Washington University (HRPO#07-0949). Tissues were placed in HBSS and transported to the laboratory. hESCs were isolated and cultured as previously described. In vitro decidualization was performed as previously described with several changes. Cells were seeded in 6-well plates at 2×10^5 cells/well in DMEM:F12 without phenol red, supplemented with 2% heat-inactivated charcoal dextran-stripped calf serum (HyClone) and 50 μg/ml penicillin/streptomycin (Cambrex Bio Science). Cells were treated with 1 μM medroxyprogesterone-17-acetate (MPA) (Sigma) and 0.5 mM N^6, 2′-O-Dibutyryladenosine 3′,5′-cyclic monophosphate sodium salt (db-cAMP) (Sigma). Control samples received 0.1% ethanol vehicle control.
Human immortalized ESC (ESC telomerase immortalized, ESC-T), were decidualized in vitro in the presence of 0, 2.5 or 5 mM GlcN for 9 days.

C[C@]12CC[C@H](O)CC1=CC[C@@H]1[C@@H]2CC[C@]2(C)C(=O)CC[C@@H]12 [DHEA, dehydroepiandrosterone]
PRL and IGFBP1 decidualization markers (100 μM DHEA, day 4): drastic decrease | Morphological change during decidualization (DHEA): the morphological progression is halted | Lowering of PRL and IGFBP1 mRNA expression vs differentiation media only (DHEA, day 3 of in vitro culture): 5 fold
